What was measured:
[1] = tested on: Huh-7 cells containing HCV Con1 subgenomic replicon (GS4.1 cells); test: HCV Replicon Assay (NS4A ELISA); type: cell-based; conditions: Hepatitis C virus, Huh-7, 72 hr, NS4A protein by ELISA
Description: General procedure: Huh-7 cells containing HCV Con1 subgenomic replicon (GS4.1 cells) were grown in Dulbecco's Modified Eagle Medium (DMEM) supplemented with 10% fetal bovine serum (FBS), 2 mM L-glutamine, 110 mg/L sodium pyruvate, 1× non-essential amino acids, 100 U/mL penicillin-streptomycin, and 0.5 mg/mL G418 (Invitrogen). For dose-response testing, the cells were seeded in 96-well plates at 7.5×10^3 cells/well in a volume of 50 μL, and incubated at 37° C./5% CO2. Three hours after plating, 50 μL of ten 2-fold serial dilutions of compounds (highest concentration, 75 μM) were added, and cell cultures were incubated at 37° C./5% CO2 in the presence of 0.5% DMSO. Alternatively, compounds were tested at a single concentration of 15 μM. In all cases, Huh-7 cells lacking the HCV replicon served as negative control. The cells were incubated in the presence of compounds for 72 hr after which they were monitored for expression of the NS4A protein by enzyme-linked immunosorbent assay (ELISA). For this, the plates were then fixed for 1 min with acetone/methanol (1:1, v/v), washed twice with phosphate-buffered saline (PBS), 0.1% Tween 20, blocked for 1 hr at room temperature with TNE buffer containing 10% FBS and then incubated for 2 hr at 37° C. with the anti-NS4A mouse monoclonal antibody A-236 (ViroGen) diluted in the same buffer. After washing three times with PBS, 0.1% Tween 20, the cells were incubated 1 hr at 37° C. with anti-mouse immunoglobulin G-peroxidase conjugate in TNE, 10% FBS. After washing as described above, the reaction was developed with O-phenylenediamine (Zymed). The reaction was stopped after 30 min with 2 NH2SO4, and absorbance was read at 492 nm using Sunrise Tecan spectrophotometer. EC50 values were determined from the % inhibition versus concentration data using a sigmoidal non-linear regression analysis based on four parameters with Tecan Magellan software. When screening at a single concentration, the results were expressed as % inhibition at 15 μM.

HCV NS3-NS4A protease = target: T1, HCV NS3-NS4A protease (Hepatitis C virus genotype 1b, UniProt P26663); test: HCV Protease Assay (SensoLyte 620 HCV Protease Assay kit); type: biochemical; conditions: 1.2 nM HCV NS3-NS4A protease, 60 min at room temperature, 5% DMSO
T1 construct: made in house
Description: General procedure: Measurement of the inhibitory effect of compounds on HCV protease activity was performed with the SensoLyte™ 620 HCV Protease Assay kit from AnaSpec, Inc. (San Jose, Calif.) under conditions described by the supplier using 1.2 nM HCV NS3-NS4A protease, which was obtained according to Taremi et al. (Protein Science, 1998, 7, 2143-2149). The compounds were tested at a variety of concentrations in assay buffer containing a final DMSO concentration of 5%. Reactions were allowed to proceed for 60 min at room temperature and fluorescence measurements were recorded with a Tecan Infinity Spectrofluorimeter. The IC50 values were determined from the percent inhibition versus concentration data using a sigmoidal non-linear regression analysis based on four parameters with Tecan Magellan software.

[2] = Cytotoxicity evaluation (Cell Titer 96 AQueous One Solution Cell Proliferation Assay); type: cell-based; conditions: human; GS4.1 cells, cellular viability
Description: For cytotoxicity evaluation, GS4.1 cells were treated with compounds as described above and cellular viability was monitored using the Cell Titer 96 AQueous One Solution Cell Proliferation Assay (Promega). CC50 values were determined from the % cytotoxicity versus concentration data with Tecan Magellan software as described above.

T1 sequence (P26663 1027-1208): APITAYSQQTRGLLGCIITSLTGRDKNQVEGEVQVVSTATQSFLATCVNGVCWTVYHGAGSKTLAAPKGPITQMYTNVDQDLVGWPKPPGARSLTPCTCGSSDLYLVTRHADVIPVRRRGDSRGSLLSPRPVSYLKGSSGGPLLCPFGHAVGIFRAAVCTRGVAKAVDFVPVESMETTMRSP

| Compound | EC50 [1] [µM] | IC50 (HCV NS3-NS4A protease) [µM] | CC50 [2] [µM] |
| --- | --- | --- | --- |
| C#Cc1csc(-c2cc(O[C@H]3C[C@H]4C(=O)N(C)CCCC/C=C\[C@@H]5C[C@@]5(C(=O)NS(=O)(=O)C5(C)CC5)NC(=O)N4C3)c3ccc(OC)c(Cl)c3n2)n1 [Compound G2, (Z)-(4R,6S,15S,17S)-[17-[8-chloro-7-methoxy-2-(4-ethynylthiazol-2-yl)quinolin-4-yloxy]-13-N-methyl-2,14-dioxo-1,3,13-triazatricyclo-[13.3.0.0]octadec-7-en-4-yl]carbonyl(1-methyl-cyclopropyl)sulfonamide] | < 1 | < 1 | 10 to 75 |
| COc1ccc2c(O[C@H]3C[C@H]4C(=O)N(C)CCCC/C=C\[C@@H]5C[C@@]5(C(=O)NS(=O)(=O)C5CC5)NC(=O)N4C3)cc(-c3nc(C(F)(F)F)cs3)nc2c1Cl [Compound 69d, (Z)-(4R,6S,15S,17S)-[17-[8-chloro-7-methoxy-2-(4-trifluoromethythiazol-2-yl)quinolin-4-yloxy]-13-N-methyl-2,14-dioxo-1,3,13-triazatricyclo[13.3.0.0]octadec-7-en-4-yl]carbonyl(cyclopropyl)sulfonamide] | < 1 | < 1 | 10 to 75 |
| COc1cc(C)c2nc(-c3nc(C(C)C)cs3)cc(O[C@H]3C[C@H]4C(=O)N(C)CCCC/C=C\[C@@H]5C[C@@]5(C(=O)NS(=O)(=O)C5(C)CC5)NC(=O)N4C3)c2c1 [Compound 56f, (Z)-(4R,6S,15S,17S)-[17-[6-methoxy-8-methyl-2-(4-isopropylthiazol-2-yl)quinolin-4-yloxy]-13-N-methyl-2,14-dioxo-1,3,13-triazatricyclo[13.3.0.0]octadec-7-en-4-yl]carbonyl(1-methyl-cyclopropyl)sulfonamide] | < 1 | < 1 | > 75 |
| COc1ccc2c(O[C@H]3C[C@H]4C(=O)N(C)CCCC/C=C\[C@@H]5C[C@@]5(C(=O)NS(=O)(=O)C5CC5)NC(=O)N4C3)cc(-n3ccc(C(F)(F)F)n3)nc2c1C [Compound 91g, (Z)-(4R,6S,15S,17S)-[17-[7-methoxy-8-methyl-2-(3-trifluoromethyl-1H-pyrazol-1-yl)quinolin-4-yloxy]-13-N-methyl-2,14-dioxo-1,3,13-triazatricyclo[13.3.0.0]octadec-7-ene-4-yl]carbonyl(cyclopropyl)sulfonamide] | < 1 | < 1 | > 75 |
| COc1ccc2c(O[C@H]3C[C@H]4C(=O)N(C)CCCC/C=C\[C@@H]5C[C@@]5(C(=O)NS(=O)(=O)C5(C)CC5)NC(=O)N4C3)cc(-c3nc(C(C)C)cs3)nc2c1 [Compound 56a, (Z)-(4R,6S,15S,17S)-[17-[7-methoxy-2-(4-isopropylthiazol-2-yl)quinolin-4-yloxy]-13-N-methyl-2,14-dioxo-1,3,13-triazatricyclo-[13.3.0.0]octadec-7-en-4-yl]carbonyl(1-methyl-cyclopropyl)sulfonamide] | < 1 | < 1 | > 75 |
| COc1ccc2c(O[C@H]3C[C@H]4C(=O)N(C)CCCC/C=C\[C@@H]5C[C@@]5(C(=O)NS(=O)(=O)C5(C)CC5)NC(=O)N4C3)cc(-n3ccc(C(F)(F)F)n3)nc2c1C [Compound 91c, (Z)-(4R,6S,15S,17S)-[17-[7-methoxy-8-methyl-2-(3-trifluoromethyl-1H-pyrazol-1-yl)quinolin-4-yloxy]-13-N-methyl-2,14-dioxo-1,3,13-triazatricyclo[13.3.0.0]octadec-7-ene-4-yl]carbonyl(1-methylcyclopropyl)sulfonamide] | < 1 | < 1 | > 75 |
| C#CC1(S(=O)(=O)NC(=O)[C@@]23C[C@H]2/C=C\CCCCN(C)C(=O)[C@@H]2C[C@H](Oc4cc(-c5nc(C(C)C)cs5)nc5c(C)c(OC)ccc45)CN2C(=O)N3)CC1 [Compound 83b, (Z)-(4R,6S,15S,17S)-[17-[7-methoxy-8-methyl-2-(4-isopropylthiazol-2-yl)quinolin-4-yloxy]-13-N-methyl-2,14-dioxo-1,3,13-triazatricyclo[13.3.0.0]octadec-7-en-4-yl]carbonyl(1-ethynylcyclopropyl)sulfonamide] | < 1 | < 1 | > 75 |
| COc1ccc2c(O[C@H]3C[C@H]4C(=O)N(C)CCCC/C=C\[C@@H]5C[C@@]5(C(=O)NS(=O)(=O)C5(C)CC5)NC(=O)N4C3)cc(-c3csc(C(F)(F)F)n3)nc2c1C [Compound O4, (Z)-(4R,6S,15S,17S)-[17-[7-methoxy-8-methyl-2-(2-trifluoromethylthiazol-4-yl)quinolin-4-yloxy]-13-N-methyl-2,14-dioxo-1,3,13-triazatricyclo-[13.3.0.0]octadec-7-en-4-yl]carbonyl-(1-methylcyclopropyl)sulfonamide] | < 1 | < 1 | > 75 |
